According to patent publication US20250152605A1, “METHOD AND DRUG FOR TREATING NEURONAL CEROID LIPOFUSCINOSIS” (priority 2021, published 2025):

How the values were obtained:
[1] = system: CLN3^Δex7/8 human neurons; test: qRT-PCR of autophagy-related and lysosomal genes in human neurons; format: cell-based; details: 6 hours
Experimental: The cells in the cell-culture dish were collected, extracted using AxyPrep Total RNA Mini Prep Kit or Qiagen AxyPrep Total RNA Mini Prep Kit, and the extracted RNA concentration is measured using Nanodrop; the extracted mRNA was reverse transcribed into cDNA by Transgen's EasyScript® One-Step gDNA Removal and cDNA Synthesis SuperMix and the primers used for reverse transcription were Oligo dT primers; the completion of reverse transcription followed by qRT-PCR reaction through PerfectStart™ Green qPCR SuperMix to detect the expression of the target gene; the qRT-PCR reaction was performed on the Bio-Rad CFX96 Real-Time PCR system; see Table 2 and Table 3 for the 20 μL qRT-PCR reaction system and reaction procedures; data analysis was performed in Prism 7 software using the 2^−ΔΔCt process with GAPDH as internal reference for relative quantification of the expression of the target gene.
The effect of Compound G on the transcription level of the autophagy-related genes and the lysosomal genes was further detected in the induced CLN3^Δex7/8 human neural stem cells and neurons.

[2] = Drug concentration in mouse brain tissue (UPLC-MS/MS); format: in vivo; details: Cln3 KO mice
Experimental: In order to determine whether Compound G can pass through the blood-brain barrier and its drug concentration in the brain tissue of mice, the following experiment was performed: Compound G was dissolved in drinking water at a concentration of 1 mg/mL and fed to mice, and a solvent was added to the drinking water of control mice; mice treated with Compound G were removed at 8 different random time points, and after Avertin anesthesia, their hearts were perfused with 20 mL dPBS to rinse the blood in the mice; non-dosed mice were also perfused in the same manner as blank tissue; whole mouse brain tissue was removed, weighed, snap frozen in liquid nitrogen and ground using Mixer Mill (RETSCH MM400) with a shaking frequency of 26 beats/sec for 5 minutes; a small molecule with similar structural properties to Compound G was prepared in advance as an internal reference (denoted IS) and IS was dissolved in 80% aqueous methanol to 100 ng/ml. […]
After using dPBS to completely perfuse the systemic blood, the mice were euthanized and the brain tissues thereof were taken out. The drug concentrations of Compound G in the mouse brain tissues were measured.

[3] = system: SCMAS protein; test: SCMAS protein storage in neurons (immunofluorescence staining and western blot); format: cell-based, human; details: CLN3^Δex7/8 neurons
Experimental: Sample preparation: for adherent cultured cells, exemplified by cells cultured in a six-well cell plate, the cell medium was aspirated and the cells were washed once with dPBS. About 100 μL of RIPA lysate (50 mM Tris-HCl, pH 7.5, 150 mM NaCl, 0.25% Na-deoxycholate, 0.1% NP-40, 0.1% Triton X-100) containing protease inhibitors and phosphatase inhibitors was added to each well. The cell lysate was scraped off completely with a cell scraper and collected into 1.5 mL EP tubes. Lysis was continued for 30 minutes on ice. For animal tissue, the weight of the animal tissue was weighed, and RIPA lysate containing protease inhibitors and phosphatase inhibitors was added with five times the volume of the animal tissue. The tissue was grinded on ice with a tissue grinder until there is no obvious tissue mass, collected into 1.5 mL EP tubes, and placed on ice for further lysis for 30 min. […]

C/C=C1\C(=O)C[C@H]2[C@@H]3CCC4=CC(=O)CC[C@]4(C)[C@H]3CC[C@]12C [Compound G, (Z)-guggulsterone]
expression of the autophagy-related genes or the lysosomal genes overall [1]: did not significantly increase
average concentration in the mouse brain ([2]; 1 mg/mL in drinking water, different time points (n=8)): 814.74±834.19 ng/g brain tissue
penetration of the blood-brain barrier ([2]; drinking water): could penetrate the blood-brain barrier
abnormal storage of SCMAS protein [3]: significant reduction
